The values that follow come from patent publication US10450326B2, “Thiazolopyrimidinone compounds and preparation methods and use thereof” (PEKING UNIVERSITY, priority 2015, dated 2019).

This assay addresses T1, α7 nAChR (Homo sapiens, UniProt P36544).
T1 construct: expressed in transfected cells; host or cells: Xenopus oocytes (cRNA injection)
Put plainly: α7 nAChR positive allosteric modulator activity assay, voltage clamp in Xenopus oocytes with 100 μM ACh. In kind it is cell-based. The conditions noted are these: for activity at 10 µM: at 10 μM compound, current induced by 100 μM ACh, Xenopus oocytes expressing α7 nAChR, read-out: Max Mod (%, at 10 μM); for EC50: potentiation of current induced by 100 μM ACh, Hill equation fit. As to the method: The experimental process was as follows:
(1) Xenopus oocytes were injected with cRNA encoding α7 nAChR in order to express α7 nAChR on the cell membrane successfully;
(2) 100 μM ACh alone was added, and the α7 nAChR characteristic current caused by it was recorded as a control;
(5) The oocytes were incubated for 1 min with 10 μM compound, then 10 µM compound and 100 μM ACh were added simultaneously and the current induced by ACh was recorded at this time;
(6) The differences between the two currents in terms of peak intensity and duration were compared, with the ratio of peak intensity of the two currents representing the adjustment effect (Enhance Rate), in order to determine whether the compound had PAM activity, if the activity was good, then the subsequent test was carried out;
(7) Concentration gradient was set and the effects of compounds at different concentrations on the α7 nAChR characteristic current induced by 100 μM ACh were evaluated. Several determinations were carried out at the same concentration, and the results were presented in the form of “mean±standard deviation”;
(8) The EC50 (median maximum effect concentration) values and Max mod (the current amplitude caused by the maximal degree of adjustable endogenous agonist acetylcholine) values of the compounds and other activity data were obtained by Hill equation Inormalized=Emax/(1+(EC50/C)nH).
The amplitude of the peak current is only normalized by the amplitude produced by 100 μM ACh and different concentrations of LD486. […] It can be seen from FIG. 3 that the Hill equation is used to fit the dose-response curve and calculate the kinetic parameters.

T1 sequence (P36544 23-502): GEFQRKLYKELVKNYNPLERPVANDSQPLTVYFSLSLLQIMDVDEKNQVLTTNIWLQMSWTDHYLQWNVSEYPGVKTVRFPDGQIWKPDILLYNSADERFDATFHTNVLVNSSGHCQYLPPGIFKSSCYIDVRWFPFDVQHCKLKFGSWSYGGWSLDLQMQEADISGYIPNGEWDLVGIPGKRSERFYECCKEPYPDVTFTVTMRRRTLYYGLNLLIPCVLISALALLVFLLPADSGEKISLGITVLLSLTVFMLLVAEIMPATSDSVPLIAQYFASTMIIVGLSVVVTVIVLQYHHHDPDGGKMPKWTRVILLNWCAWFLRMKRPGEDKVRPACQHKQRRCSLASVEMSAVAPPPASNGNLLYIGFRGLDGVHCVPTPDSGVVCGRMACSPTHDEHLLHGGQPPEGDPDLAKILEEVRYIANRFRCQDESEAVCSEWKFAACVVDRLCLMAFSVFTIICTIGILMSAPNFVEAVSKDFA

For `Cc1nc(Cl)cc(Nc2nc3nnn(-c4c(C)cccc4Cl)c(=O)c3s2)n1` [JWX-A3N, 6-((6-Chloro-2-methylpyrimidin-4-yl)amino)-3-(2-chloro-6-methylphenyl)thiazolo[4,5-d][1,2,3]triazin-4(3H)-one], the activity at 10 µM was determined as 110%.
The term EC50 denotes the concentration that produces a half-maximal response. Turning to `Cc1ccc(Nc2nc3ncn(-c4c(C)cccc4Cl)c(=O)c3s2)cc1F` [JWX-A0108, 6-(2-Chloro-6-methylphenyl)-2-((3-fluoro-4-methylphenyl)amino)thiazolo[4,5-d]pyrimidin-7(6H)-one], the EC50 is 3.39 µM.
Regarding `Cc1cccc(Cl)c1-n1cnc2nc(NC(=O)c3ccccc3)sc2c1=O` [JWX-A0121, N-(6-(2-Chloro-6-methylphenyl)-7-oxo-6,7-dihydrothiazolo[4,5-d]pyrimidin-2-yl)benzamide], the activity at 10 µM came out at 200% and the EC50 worked out at 10 µM.
The corresponding values for `Cc1ccc(C(=O)Nc2nc3ncn(-c4c(C)cccc4Cl)c(=O)c3s2)cc1` [JWX-A0310, N-(6-(2-Chloro-6-methylphenyl)-7-oxo-6,7-dihydrothiazolo[4,5-d]pyrimidin-2-yl)-4-methylbenzamide] are 450% and 10 µM.
As for `COc1ccc(C(=O)Nc2nc3ncn(-c4c(C)cccc4Cl)c(=O)c3s2)cc1` [JWX-A0312, N-(6-(2-Chloro-6-methylphenyl)-7-oxo-6,7-dihydrothiazolo[4,5-d]pyrimidin-2-yl)-4-methoxybenzamide], the activity at 10 µM turned out to be 630% and the EC50 came to 10 µM.
As for `Cc1ccc(Nc2nc3ncn(-c4c(C)cccc4Cl)c(=O)c3s2)cc1C` [JWX-A0315, 6-(2-Chloro-6-methylphenyl)-2-((3,4-dimethylphenyl)amino)thiazolo[4,5-d]pyrimidin-7(6H)-one], the activity at 10 µM came to 650% and the EC50 was 6.99 µM.
The like results for `Cc1cc(Nc2nc3ncn(-c4c(C)cccc4Cl)c(=O)c3s2)cc(C)c1C` [JWX-A0322, 6-(2-Chloro-6-methylphenyl)-2-((3,4,5-trimethylphenyl)amino)thiazolo[4,5-d]pyrimidin-7(6H)-one] were, in that order, 600% and 3.15 µM.
On to `Cc1ccc(Nc2nc3ncn(-c4ccccc4C)c(=O)c3s2)cc1` [JWX-A0414, 6-(o-Tolyl)-2-(p-tolylamino)thiazolo[4,5-d]pyrimidin-7(6H)-one], for which the activity at 10 µM amounted to 150% and the EC50 was found to be 10 µM.
The like results for `Cc1ccc(Nc2nc3ncn(-c4ccccc4Cl)c(=O)c3s2)cc1` [JWX-A0415, 6-(2-Chlorophenyl)-2-(p-tolylamino) thiazolo[4,5-d]pyrimidin-7(6H)-one] were, in that order, 680% and 10 µM.
`Cc1ccccc1Nc1nc2ncn(-c3c(C)cccc3Cl)c(=O)c2s1` [JWX-A0602, 6-(2-Chloro-6-methylphenyl)-2-(o-tolylamino)thiazolo[4,5-d]pyrimidin-7(6H)-one]: the activity at 10 µM is 300% and the EC50 stood at 10 µM.
The like results for `Cc1cccc(Cl)c1-n1cnc2nc(Nc3ccccc3F)sc2c1=O` [JWX-A0611, 6-(2-Chloro-6-methylphenyl)-2-((2-fluorophenyl)amino)thiazolo[4,5-d]pyrimidin-7(6H)-one] were, in that order, 200% and 10 µM.
For the compound `Cc1cccc(Cl)c1-n1cnc2nc(NC(=O)c3ccc(F)cc3)sc2c1=O` [JWX-A0617, N-(6-(2-Chloro-6-methylphenyl)-7-oxo-6,7-dihydrothiazolo[4,5-d]pyrimidin-2-yl)-4-fluorobenzamide], the activity at 10 µM is 150% and the EC50 came out at 10 µM.
Regarding `Cc1nc(Nc2nc3ncn(-c4c(C)cccc4Cl)c(=O)c3s2)cc(N2CCN(CCO)CC2)n1` [JWX-A0728, 6-(2-Chloro-6-methylphenyl)-2-((6-(4-(2-hydroxyethyl)piperazin-1-yl)-2-methylpyrimidin-4-yl)amino)thiazolo[4,5-d]pyrimidin-7(6H)-one], the activity at 10 µM came out at 110%.
For `Cc1cccc(Cl)c1-n1cnc2nc(Nc3ccccc3)sc2c1=O` [JWX-A0824, 6-(2-Chloro-6-methylphenyl)-2-(phenylamino)thiazolo[4,5-d]pyrimidin-7(6H)-one], the activity at 10 µM was found to be 300% and the EC50 is 10 µM.
As for `Cc1cccc(Cl)c1-n1cnc2nc(Nc3ccccn3)sc2c1=O` [JWX-A0828, 6-(2-Chloro-6-methylphenyl)-2-(pyridin-2-ylamino)thiazolo[4,5-d]pyrimidin-7(6H)-one], the activity at 10 µM turned out to be 110%.
Take `Cc1cccc(Cl)c1-n1cnc2nc(O)sc2c1=O` [JWX-A0903, 6-(2-Chloro-6-methylphenyl)-2-hydroxythiazolo[4,5-d]pyrimidin-7(6H)-one]: the activity at 10 µM is 110%.
For the compound `Cc1cccc(Cl)c1-n1cnc2nc(Nc3cc(Cl)ncn3)sc2c1=O` [JWX-A0912, 6-(2-Chloro-6-methylphenyl)-2-((6-chloropyrimidin-4-yl)amino)thiazolo[4,5-d]pyrimidin-7(6H)-one], the activity at 10 µM is 200% and the 50% effective concentration (EC50) came to 10 µM.
With `Cc1cccc(Cl)c1-n1cnc2nc(Nc3ccc(Cl)nn3)sc2c1=O` [JWX-A0918, 6-(2-Chloro-6-methylphenyl)-2-((6-chloropyridazin-3-yl)amino)thiazolo[4,5-d]pyrimidin-7(6H)-one], the activity at 10 µM was 110%.
Take `Cc1nc(Nc2nc3ncn(-c4c(C)cccc4Cl)c(=O)c3s2)cc(N2CCN(C)CC2)n1` [JWX-A1022, 6-(2-Chloro-6-methylphenyl)-2-((2-methyl-6-(4-methylpiperazin-1-yl)pyrimidin-4-yl)amino)thiazolo[4,5-d]pyrimidin-7(6H)-one]: the activity at 10 µM was determined as 110%.
In the case of `Cc1ccc(Nc2nc3ncn(-c4c(C)cccc4Cl)c(=O)c3s2)cc1` [JWX-A1029, 6-(2-Chloro-6-methylphenyl)-2-(p-tolylamino)thiazolo[4,5-d]pyrimidin-7(6H)-one], the EC50 is 7.47 µM.
Turning to `COc1ccc(Nc2nc3ncn(-c4c(C)cccc4Cl)c(=O)c3s2)cc1` [JWX-A1030, 6-(2-Chloro-6-methylphenyl)-2-((4-methoxyphenyl)amino)thiazolo[4,5-d]pyrimidin-7(6H)-one], the activity at 10 µM amounted to 200% and the EC50 amounted to 10 µM.
`Cc1cccc(Cl)c1-n1cnc2nc(Nc3ccc(Cl)cc3)sc2c1=O` [JWX-A1104, 6-(2-Chloro-6-methylphenyl)-2-((4-chlorophenyl)amino)thiazolo[4,5-d]pyrimidin-7(6H)-one]: the activity at 10 µM amounted to 200% and the EC50 was 10 µM.
The like results for `Cc1cccc(Cl)c1-n1cnc2nc(Nc3ccc(Br)cc3)sc2c1=O` [JWX-A1105, 6-(2-chloro-6-methylphenyl)-2-((4-Bromophenyl)amino)-thiazolo[4,5-d]pyrimidin-7(6H)-one] were, in that order, 150% and 10 µM.
In the case of `COc1cccc(Nc2nc3ncn(-c4c(C)cccc4Cl)c(=O)c3s2)c1` [JWX-A1106, 6-(2-chloro-6-methylphenyl)-2-((3-methoxyphenyl)amino)thiazolo[4,5-d]pyrimidin-7(6H)-one], the activity at 10 µM came to 150% and the half-maximal effective concentration (EC50) came out at 10 µM.
The corresponding values for `Cc1cccc(Cl)c1-n1cnc2nc(Nc3cccc(Br)c3)sc2c1=O` [JWX-A1113, 6-(2-chloro-6-methylphenyl)-2-((3-Bromophenyl)amino)-thiazolo[4,5-d]pyrimidin-7(6H)-one] are 200% and 10 µM.
Take `Cc1cccc(Cl)c1-n1cnc2nc(N(C)c3ccccc3)sc2c1=O` [JWX-A1114, 6-(2-Chloro-6-methylphenyl)-2-(methyl(phenyl)amino)thiazolo[4,5-d]pyrimidin-7(6H)-one]: the activity at 10 µM is 150% and the EC50 was 10 µM.
The like results for `Cc1cccc(Cl)c1-n1cnc2nc(Nc3cccc(Cl)c3)sc2c1=O` [JWX-A1116, 6-(2-Chloro-6-methylphenyl)-2-((3-chlorophenyl)amino)thiazolo[4,5-d]pyrimidin-7(6H)-one] were, in that order, 300% and 10 µM.
The like results for `Cc1cccc(Cl)c1-n1cnc2nc(Nc3ccc(F)cc3)sc2c1=O` [JWX-A1119, 6-(2-Chloro-6-methylphenyl)-2-((4-fluorophenyl)amino)thiazolo[4,5-d]pyrimidin-7(6H)-one] were, in that order, 250% and 10 µM.
Turning to `Cc1cccc(Nc2nc3ncn(-c4c(C)cccc4Cl)c(=O)c3s2)c1` [JWX-A1211, 6-(2-Chloro-6-methylphenyl)-2-(m-tolylamino)thiazolo[4,5-d]pyrimidin-7(6H)-one], the EC50 was 8.39 µM.
For the compound `Cc1cccc(Cl)c1-n1cnc2nc(Nc3cccc(F)c3)sc2c1=O` [JWX-A1214, 6-(2-Chloro-6-methylphenyl)-2-((3-fluorophenyl)amino)thiazolo[4,5-d]pyrimidin-7(6H)-one], the activity at 10 µM is 450% and the EC50 is 7.65 µM.
In the case of `Cc1cccc(Cl)c1-n1cnc2nc(SCc3ccccc3)sc2c1=O` [JWX-A1223, 6-(2-chloro-6-methylphenyl)-2-(Benzylthio)thiazolo[4,5-d]pyrimidin-7(6H)-one], the EC50 was determined as 1.26 µM.
